Test system: Herpes Zoster (varicella zoster virus)
Experiment: Valaciclovir prophylaxis against HZ activation in patients receiving CellProtect infusions
Assay type: in vivo, human
Conditions: 500 mg twice daily for 6 months following infusions; patients 110 and 111; within 12 months following prophylaxis
Protocol: Since the development of HZ was clearly associated with the NK cell infusions in the first four patients the last two patients (110 and 111) were treated with high dose valaciclovir, 500 mg twice daily for 6 months following the infusions.

CC(C)[C@H](N)C(=O)OCCOCn1cnc2c(=O)[nH]c(N)nc21 [valaciclovir]
Signs of HZ activation: did not show any signs of HZ activation

— patent US20210186977A1, “MEDICAL USES” (priority 2018, published 2021)
